Reference: patent US20220105041A1, “METHOD FOR MANUFACTURING A SOLID ADMINISTRATION FORM AND SOLID ADMINISTRATION” (priority 2019, published 2022)

Assay: Dissolution (release of caffeine) of 3D printed tablets, paddle method, Sotax AT 7smart
Format: physicochemical
Conditions: 900 ml 0.1 n HCl, 37° C., paddle 100 rpm, UV 272 nm
Experimental: Release of caffeine as active ingredient is determined using the Sotax Freisetzungsapparatur Sotax AT 7smart (Sotax AG, Lörrach, Germany) […]
Each sample is collected in a test tube with the automatic sampler.
Device: Release apparatus: Sotax AT 7smart (Sotax AG, Lörrach, Germany), Photometer Agilent 8453 (Agilent Technologies, Waldbronn, Germany)
Temperature of medium: 37° C.
Cuvette layer thickness: 10 mm
FIG. 31 illustrates results achieved by dissolution measurement of 3D printed caffeine containing tablets in 900 ml of 0.1 n HCl. […] To dissolute and release the full API amount of a filled tablet (100%) needs 360 minutes for entire release of the comprising API, while a 3D printed tablet, 50% filled, already releases 100% of the comprising API amount after app 30 minutes in the dissolution equipment. The time measured is […] dissolving pure crystalline caffeine particles tested in comparison by 100% after app 5 minutes.

## Cn1c(=O)c2c(ncn2C)n(C)c1=O [pure crystalline caffeine, Caffeine]
  time to release 100% (full amount) of API caffeine: ~5 min
